Publication PMC6010131, “Antileishmanial activity of sulphonamide nanoemulsions targeting the β-carbonic anhydrase from Leishmania species” (Journal of Enzyme Inhibition and Medicinal Chemistry, 2018)
Converted amounts (≈) assume the structure as drawn. Marks after values point to notes of the source that are not given here. One block for each compound: values may come before it.

Experiments:
[1] = Dissolution of sulphonamides in clove oil; type: physicochemical; conditions: concentration of 5 mg/ml
Experimental: The oil-in-water (O/W) NEs were prepared by high-energy method using an ultrasound processor (Hielscher model UP100H, Hielscher GmbH, Berlin, Germany), according to the method descripted by Senna et al.[31]. Oil phase was prepared by sulphonamides dissolution in the clove oil. An amount of 5 mg of drug was weighted in a microtube and 1 ml of clove oil was added. The tube was agitated for 1 min for obtaining of the drug solution (5 mg/ml). Aqueous phase was prepared by adding 1 g of Pluronic F127® in 8 g of water. Then 1 ml of oil phase (drug dissolved in clove oil) was added to 9 ml of aqueous phase (Pluronic F127 in water) under constant ultrasound homogenisation (amplitude 80%, continuous cycle no. 1) during 5 min in an ice bath at 5 °C to prevent heating of the dispersion. A transparent NE was obtained at a concentration of 500 µg/ml.
The NEs were produced with 10% of oil phase. NEs were prepared also without the drug in order to evaluate the stability, droplet size and PDI. […] Phase separation and precipitation of the drug were not observed, and the NE was considered stable in the concentration of up to 500 µg/ml.

[2] = parameters: method as in PMID 25825339; conditions: cited from earlier work
Haemolytic assay = type: cell-based, Human; conditions: human, human erythrocytes (suspension in PBS), read-out: Haemolysis (%)
Experimental: (§1) Haemolytic activity was evaluated as described previously by Ishnava and Shah with a slight modification. Human erythrocytes from healthy individuals were collected in vacuum tubes containing EDTA as anti-coagulant. The erythrocytes were harvested by centrifugation for 10 m at 2500 rpm at 20 °C, and washed three times in PBS. To the pellet, PBS was added to yield a 10% (v/v) erythrocytes/PBS suspension. The 10% suspension was then diluted 1:10 in PBS. Aliquots of 100 µl of erythrocytes suspension was added, in triplicate, to 100 µl of a two-fold dilution series of sulphonamides NEs and amphotericin B (at concentrations of 128, 64, 32, 16, 8, 4, 2, and 1 µM, respectively, in the same buffer) in microtubes. Negative and positive controls were performed by replacing drug dilution with PBS or with 200 µl of […] for the total haemolysis, respectively. The tubes were incubated for 1 h at 37 °C and then centrifuged for 10 min at 2000 rpm at 20 °C. From the supernatant fluid, 150 µl was transferred to a flat-bottomed microtiter plate, and the absorbance was measured spectrophotometrically at 540 nm. Five concentrations are required for HC50 calculation. The following formula was used to find out the percentage of haemolytic activity: [A540 treated sample − A540 of buffer)/(A540 of Triton X-100 − A540 of buffer)] × 100.

Human erythrocytes = test: Haemolytic assay; type: cell-based; conditions: human erythrocytes, 1 h, 37 °C
Experimental: as §1

Cytotoxic assay (MTT) = type: cell-based; conditions: mouse, RAW 264.7 macrophages
Experimental: RAW 264.7 macrophages were obtained from the National Institute of Metrology, Quality and Technology (Inmetro, Rio de Janeiro, Brazil) and maintained in DMEM medium supplemented with 10% FBS at 37 °C in a 5% controlled CO2 atmosphere. Cell maintenance was performed every 48–72 h, time necessary for cells to achieve confluent monolayers.
Sulphonamide NEs cytotoxicity was performed using tetrazolium dye MTT colorimetric assay. RAW 264.7 macrophages were harvest after confluent monolayer achievement. The cells were washed twice with PBS and a cellular suspension of 10^6 cells/ml was prepared in fresh DMEM culture medium. Aliquots of 100 µl of the cellular suspension were placed into polystyrene 96-well plates, and then incubated at 37 °C in a 5% CO2 atmosphere for 6 h to allow for adherence of macrophages. After this period, the adherent cells were subjected to treatment with several concentrations of the sulphonamide NEs (1–128 µM), and then incubated for additional 48 h. […] Macrophage viability was determined after formazan crystals solubilisation with DMSO followed by the absorbance measurement at 570 nm using a SpectraMax M5 spectrophotometer (Molecular Devices, Los Angeles, CA). The 50% cytotoxic concentrations were calculated by regression analysis using Microsoft Excel 2013 software.

[3] = tested on: L. amazonensis IFLA/BR/1967/PH8 promastigotes; test: Antileishmanial microdilution assay (resazurin), promastigotes; type: cell-based, Leishmania amazonensis
Experimental: (§2) Leishmania (infantum MHOM/BR/1974/PP75 and L. amazonensis IFLA/BR/1967/PH8 were donated by the Leishmania Type Culture Collection (LTCC) of Oswaldo Cruz Institute/Fiocruz (Rio de Janeiro, Brazil). […] The antileishmanial activity of the sulphonamide NEs was evaluated by the microdilution technique. […] L. amazonensis and L. infantum promastigote forms were harvest at late log phase of growth (96 h), washed twice with PBS and resuspended in fresh culture medium to a final concentration of 5 × 10^6 parasites/ml. […] The minimal inhibitory concentration (MIC) was determined as the lowest concentration capable of inhibiting in vitro growth of the parasites. […] The selective index (SI) for promastigote forms of L. amazonensis and L. infantum was calculated by the ratio between the CC50 for RAW 264.7 macrophages and the IC50 for the parasites.

L. donovani = tested on: L. donovani; parameters: method as in PMID 25825339; conditions: against L. donovani; cited from earlier work
[4] = tested on: L. infantum MHOM/BR/1974/PP75 promastigotes; test: Antileishmanial microdilution assay (resazurin), promastigotes; type: cell-based, Leishmania infantum
Experimental: as §2

[5] = Leishmania amazonensis, L. amazonensis promastigotes, 120 h
[6] = Leishmania infantum, L. infantum promastigotes, 120 h

Compound: NS(=O)(=O)c1ccc(NC(=O)Cc2ccccc2Br)c(F)c1 [Sulphonamide 3G]
Dissolution in clove oil [1]: easily dissolved

Compound: NS(=O)(=O)c1ccc(NC(=O)Cc2ccc(Cl)cc2)c(F)c1 [Sulphonamide 3F]
Dissolution in clove oil [1]: easily dissolved

Compound: NS(=O)(=O)c1ccc(CCNC(=O)Cc2ccccc2Br)cc1 [Sulphonamide 3W]
Dissolution in clove oil [1]: easily dissolved

Compound: C[C@@H]1[C@H](O)[C@@H](C)/C=C/C=C/C=C/C=C/C=C/C=C/C=C/[C@H](O[C@@H]2O[C@H](C)[C@@H](O)[C@H](N)[C@@H]2O)C[C@@H]2O[C@](O)(C[C@@H](O)C[C@@H](O)[C@H](O)CC[C@@H](O)C[C@@H](O)CC(=O)O[C@H]1C)C[C@H](O)[C@H]2C(=O)O [AMP, amphotericin B]
haemotoxicity [2]: 69.8% | hemolysis at 1 h, 2 µM (Haemolytic assay; 2 µM): 1.18 ± 0.31% | hemolysis at 1 h, 4 µM (Haemolytic assay; 4 µM): 2.01 ± 0.02% | hemolysis at 1 h, 8 µM (Haemolytic assay; 8 µM): 2.09 ± 0.15% | hemolysis at 1 h, 16 µM (Haemolytic assay; 16 µM): 20.8 ± 0.5% | hemolysis at 1 h, 32 µM (Haemolytic assay; 32 µM): 57.8 ± 6.7% | hemolysis at 1 h, 64 µM (Haemolytic assay; 64 µM): 75.7 ± 5.24% | hemolysis at 1 h, 128 µM (Haemolytic assay; 128 µM): 100% | hemolysis at 1 h, 256 µM (Haemolytic assay; 256 µM): 100% | HC50 (Human erythrocytes): 27.93 ± 1.71^b µM | CC50 at 48 h (Cytotoxic assay (MTT)): 1070 ± 1490 nM | IS50 (selectivity index = CC50/IC50) ([3]; CC50 RAW 264.7 / IC50 L. amazonensis): 1.78 ± 0.01^b | IC50 [3, 5]: 610 ± 10 nM | IC90 [3, 5]: 1230 ± 230 nM | MIC ([3]; Leishmania amazonensis, L. amazonensis promastigotes, 120 h, 26 °C, read-out: MIC (minimum inhibitory concentration)): 4 µM (≈ 3.7 µg/mL) | IC50 (L. donovani): 0.214 ± 0.06 µg/mL (≈ 0.232 µM) | IS50 (selectivity index = CC50/IC50) ([4]; CC50 RAW 264.7 / IC50 L. infantum): 1.59 ± 0.01^d | IC50 [4, 6]: 670 ± 100 nM | IC90 [4, 6]: 1010 ± 30 nM | MIC ([4]; Leishmania infantum, L. infantum promastigotes, 120 h, 26 °C, read-out: MIC (minimum inhibitory concentration)): 4 µM (≈ 3.7 µg/mL)

More lines, now with the values ahead:

Dissolution in clove oil [1]: easily dissolved
Compound: NS(=O)(=O)c1nnc(NC(=O)Cc2ccc(Cl)cc2)s1 [Sulphonamide 5B]

Dissolution in clove oil [1]: easily dissolved
Compound: NS(=O)(=O)c1nnc(NC(=O)Cc2ccccc2Br)s1 [Sulphonamide 5C]

Dissolution in clove oil [1]: easily dissolved
Compound: COc1ccc(CC(=O)Nc2nnc(S(N)(=O)=O)s2)cc1 [Sulphonamide 5D]
